Data published in PMC4019636, “Rational Design of Berberine-Based FtsZ Inhibitors with Broad-Spectrum Antibacterial Activity” (PLoS ONE, 2014).
In brackets after ≈: the same amount, converted by molar mass. Where two headings read alike, the source gives them in different places.

Columns and labels:
[1] = target: T1, S. aureus FtsZ (Staphylococcus aureus, UniProt P0A031); assay: Light scattering assay of FtsZ polymerization; type: biochemical; settings: 1 mM compound; negative control
T1 construct: made in house; host or cells: E. coli BL21(DE3)
T1 sequence (P0A031 1-390): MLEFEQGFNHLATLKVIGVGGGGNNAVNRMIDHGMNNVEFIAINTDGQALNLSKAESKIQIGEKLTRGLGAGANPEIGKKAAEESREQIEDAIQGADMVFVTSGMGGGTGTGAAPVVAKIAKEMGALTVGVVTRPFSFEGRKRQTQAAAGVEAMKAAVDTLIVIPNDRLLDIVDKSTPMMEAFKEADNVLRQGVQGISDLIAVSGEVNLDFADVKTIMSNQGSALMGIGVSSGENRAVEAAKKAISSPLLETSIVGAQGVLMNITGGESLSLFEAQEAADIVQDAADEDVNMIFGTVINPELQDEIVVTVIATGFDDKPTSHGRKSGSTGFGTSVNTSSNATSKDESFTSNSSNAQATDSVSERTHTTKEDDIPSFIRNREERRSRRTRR
Procedure: E. coli BL21(DE3) cells were transformed with the pRSET-A-S vector carrying S. aureus FtsZ with a 6-histidine tag attached at its N-terminus under the control of a T7 promoter. […] When the OD600 reached 0.8, protein expression was induced with 0.4 mM isopropyl-β-D-thiogalactopyranoside (IPTG) for 4 h. Cells were harvested by centrifugation at 9000 rpm for 20 min at 4°C. The cell pellet was resuspended in 20 mL of solubilization buffer (50 mM Tris-HCl, 150 mM NaCl, 1 mM PMSF and 1 mM EDTA, pH 7.4) and then lysed with 1 mg/mL of lysozyme. The mixture was incubated for 1 h on ice. The cells were disrupted by sonication and the crude lysate obtained was centrifuged at 13,000 rpm for 1 h at 4°C. The supernatant containing 6-histidine tagged S. aureus FtsZ was collected and loaded onto a nickel charged HiTrap chelating column pre-equilibrated with starting buffer (20 mM sodium phosphate buffer, 0.5 M NaCl, pH 7.4). The column was then washed with 8 column volumes of the starting buffer to remove the unbound proteins, and the histidine-tagged enzyme was eluted by a linear gradient of 0−0.2 M imidazole. Fractions containing S. aureus FtsZ were pooled, buffer-exchanged with 20 mM NH4HCO3 (pH 8.0) at 4°C, lyophilized, and stored at −20°C. A stock solution of S. aureus FtsZ for the subsequent bioassay was prepared from the lyophilized powder.
The light scattering assay was performed using a protocol adapted from the literature. The polymerization and depolymerization of recombinant S. aureus FtsZ was measured using 90° light scattering in a thermostatically (37°C) controlled fluorescence spectrometer (Perkin Elmer, USA). Both excitation and emission wavelengths were set to 600 nm with a slit width of 2.5 nm. S. aureus FtsZ (6 µM) in 50 mM of MOPS buffer (pH 6.5) was incubated with vehicle (1% DMSO) or different concentrations of the test compound for 10 min at 25°C. 50 mM KCl and 10 mM MgCl2 were then added to establish a baseline. After 8 min, a final concentration of 1 mM GTP was added at the last fraction and the increase in light scattering was measured for an additional 2000s. The rate and extent of polymerization were measured. Appropriate blanks were subtracted from all experimental data. Moreover, in order to rule out unselective inhibition by formation of aggregates, control experiments with 0.01% (v/v) Triton X-100 from a freshly prepared 1% (v/v) stock solution were performed for berberine and compound 2 [40], [41]. Reported results are the average of three independent experiments.

[2] = test system: S. aureus ATCC 29247; assay: Antimicrobial susceptibility assay (broth microdilution MIC); type: cell-based; settings: Staphylococcus aureus
Description: (§1) The bacterial strains S. aureus ATCC 29213, S. aureus ATCC 29247, S. aureus ATCC BAA-41, E. faecium ATCC 49624, E. faecium ATCC 700221, E. faecalis ATCC 29212, S. epidermidis ATCC 12228, E. coli ATCC 25922, and K. pneumoniae ATCC BAA-1144 used in the antimicrobial susceptibility assays were purchased from American Type Culture Collection (ATCC, USA). B. subtilis strain 168 was already available in our in-house collection. E. coli JM109 WM647 was kindly provided by Dr. W. Margolin (University of Texas-Houston Medical School). FM 4–64 was purchased from Invitrogen (Eugene, Oregon). All other chemicals and reagents were purchased from Sigma-Aldrich. Stock solutions were prepared in DMSO. The final percentage of DMSO in the assays was 1% (v/v) for all experiments.
(§2) Antimicrobial susceptibility tests were conducted in 96-well microplates using the broth microdilution procedure described in the Clinical and Laboratory Standards Institute (CLSI) guidelines. Cation-adjusted Mueller Hinton broth for S. aureus strain ATCC 29213, methicillin-resistant S. aureus strain ATCC BAA-41 and ampicillin-resistant S. aureus strain ATCC 29247, or brain heart infusion broth for antibiotic-susceptible E. faecium strain ATCC 49624 and vancomycin-resistant E. faecium strain ATCC 700221, or Mueller Hinton broth for antibiotic-susceptible strains B. subtilis strain 168, E. faecalis strain ATCC 29212 and E. coli strain ATCC 25922 were used in the assays. After incubation for 18 h at 37°C, the absorbance at 600 nm (A600) was recorded using a microplate reader (Bio-Rad laboratory Ltd., UK) and the percentage of bacterial cell inhibition with respect to vehicles (1% DMSO) was calculated. The MIC was defined as the lowest compound concentration at which the growth of bacteria was inhibited by ≥90%. Three independent assays were performed for each test.

[3] = test system: K. pneumoniae ATCC BAA-1144; assay: as above; type: cell-based; settings: Klebsiella pneumoniae
Description: as §1, §2

[4] = test system: E. coli ATCC 25922; assay: as above; type: cell-based; settings: Escherichia coli
Description: as §1, §2

[5] = test system: S. aureus ATCC BAA-41; assay: as above; type: cell-based; settings: Staphylococcus aureus
Description: as §1, §2

[6] = test system: B. subtilis 168; assay: as above; type: cell-based
Description: as §1, §2

[7] = test system: S. aureus ATCC 29213; assay: as above; type: cell-based; settings: Staphylococcus aureus
Description: as §1, §2

[8] = test system: S. epidermidis ATCC 12228; assay: as above; type: cell-based; settings: Staphylococcus epidermidis
Description: as §1, §2

[9] = test system: E. faecalis ATCC 29212; assay: as above; type: cell-based; settings: Enterococcus faecalis
Description: as §1, §2

[10] = test system: E. faecium ATCC 700221; assay: as above; type: cell-based; settings: Enterococcus faecium
Description: as §1
(§3) Antimicrobial susceptibility tests were conducted in 96-well microplates using the broth microdilution procedure described in the Clinical and Laboratory Standards Institute (CLSI) guidelines. […] After incubation for 18 h at 37°C, the absorbance at 600 nm (A600) was recorded using a microplate reader (Bio-Rad laboratory Ltd., UK) and the percentage of bacterial cell inhibition with respect to vehicles (1% DMSO) was calculated. The MIC was defined as the lowest compound concentration at which the growth of bacteria was inhibited by ≥90%. Three independent assays were performed for each test.

[11] = test system: E. faecium ATCC 49624; assay: as above; type: cell-based; settings: Enterococcus faecium
Description: as §1, §3

[12] = ATCC29247, S. aureus ATCC 29247 (ampicillin-resistant), 18 h at 37°C, growth inhibited by ≥90%, read-out: MIC
[13] = ATCCBAA1144, K. pneumoniae ATCC BAA-1144 (Gram-negative, expressing AmpC β-lactamase), 18 h at 37°C, growth inhibited by ≥90%, read-out: MIC
[14] = ATCC25922, E. coli ATCC 25922, Mueller Hinton broth, 18 h at 37°C, growth inhibited by ≥90%, read-out: MIC
[15] = ATCCBAA41, S. aureus ATCC BAA-41 (methicillin-resistant), 18 h at 37°C, growth inhibited by ≥90%, read-out: MIC
[16] = Bacillus subtilis, B. subtilis 168, Mueller Hinton broth, 18 h at 37°C, growth inhibited by ≥90%, read-out: MIC
[17] = ATCC29213, S. aureus ATCC 29213, cation-adjusted Mueller Hinton broth, 18 h at 37°C, growth inhibited by ≥90%, read-out: MIC
[18] = ATCC12228, S. epidermidis ATCC 12228, 18 h at 37°C, growth inhibited by ≥90%, read-out: MIC
[19] = ATCC29212, E. faecalis ATCC 29212, Mueller Hinton broth, 18 h at 37°C, growth inhibited by ≥90%, read-out: MIC

MIC [2, 12] | MIC [3, 13] | MIC [4, 14] | MIC [5, 15] | MIC [6, 16] | MIC [7, 17] | MIC [8, 18] | MIC [9, 19] | Compound | other results
48 µg/mL (≈ 137 µM) | > 96 µg/mL | 6 µg/mL (≈ 17.2 µM) | > 96 µg/mL | 0.1 µg/mL (≈ 0.286 µM) | 1.5 µg/mL (≈ 4.29 µM) | 3 µg/mL (≈ 8.59 µM) | 6 µg/mL (≈ 17.2 µM) | CC1(C)S[C@@H]2[C@H](NC(=O)[C@H](N)c3ccccc3)C(=O)N2[C@H]1C(=O)O [Ampicillin, reference compound] | effect on the polymerization of S. aureus FtsZ [1]: no effect
 |  |  |  |  |  |  |  | CN[C@H](CC(C)C)C(=O)N[C@H]1C(=O)N[C@@H](CC(N)=O)C(=O)N[C@H]2C(=O)N[C@H]3C(=O)N[C@H](C(=O)N[C@H](C(=O)O)c4cc(O)cc(O)c4-c4cc3ccc4O)[C@H](O)c3ccc(c(Cl)c3)Oc3cc2cc(c3O[C@@H]2O[C@H](CO)[C@@H](O)[C@H](O)[C@H]2O[C@H]2C[C@](C)(N)[C@H](O)[C@H](C)O2)Oc2ccc(cc2Cl)[C@H]1O [Vancomycin, vancomycin, reference compound] | MIC ([10]; ATCC700221, 18 h): > 96 µg/mL; MIC ([11]; ATCC49624, 18 h): 1 µg/mL (≈ 0.69 µM); MIC ([2]; ATCC29247, 18 h): 1 µg/mL (≈ 0.69 µM); MIC ([3]; ATCCBAA1144, 18 h): 6 µg/mL (≈ 4.14 µM); MIC ([4]; ATCC25922, 18 h): 2 µg/mL (≈ 1.38 µM); MIC ([5]; ATCCBAA41, 18 h): 2 µg/mL (≈ 1.38 µM); MIC ([6]; Bacillus subtilis, 168, 18 h): 1 µg/mL (≈ 0.69 µM); MIC ([7]; ATCC29213, 18 h): 1 µg/mL (≈ 0.69 µM); MIC ([8]; ATCC12228, 18 h): 1 µg/mL (≈ 0.69 µM); MIC ([9]; ATCC29212, 18 h): 1 µg/mL (≈ 0.69 µM)
112 µg/mL | > 384 µg/mL | 384 µg/mL | 196 µg/mL | 112 µg/mL | 112 µg/mL | 112 µg/mL | > 196 µg/mL | COc1ccc2cc3[n+](cc2c1OCCCBr)CCc1cc2c(cc1-3)OCO2 [Compound 7] | MIC ([10]; ATCC700221, E. faecium ATCC 700221 (vancomycin-resistant), brain heart infusion broth, 18 h at 37°C, growth inhibited by ≥90%, read-out: MIC): > 196 µg/mL; MIC ([11]; ATCC49624, E. faecium ATCC 49624, brain heart infusion broth, 18 h at 37°C, growth inhibited by ≥90%, read-out: MIC): > 196 µg/mL
